In patent US6479515B1, “Heterocyclic benzenesulphonamide compounds as bradykinine antagonists” (Fournier Industrie et Sante, priority 1999, dated 2002):
Where a name gives a salt, the structure may show the parent alone. Read-outs that look alike come from different tables or passages of the source.

What was measured:
human B2 receptor = target: T1, human B2 receptor (Homo sapiens, UniProt P30411); experiment: competitive binding test on CHO cell membranes expressing the human B2 receptor using [3H]-bradykinin as ligand
T1 construct: expressed in transfected cells; host or cells: CHO cells (membranes)
T1 sequence (P30411 1-391): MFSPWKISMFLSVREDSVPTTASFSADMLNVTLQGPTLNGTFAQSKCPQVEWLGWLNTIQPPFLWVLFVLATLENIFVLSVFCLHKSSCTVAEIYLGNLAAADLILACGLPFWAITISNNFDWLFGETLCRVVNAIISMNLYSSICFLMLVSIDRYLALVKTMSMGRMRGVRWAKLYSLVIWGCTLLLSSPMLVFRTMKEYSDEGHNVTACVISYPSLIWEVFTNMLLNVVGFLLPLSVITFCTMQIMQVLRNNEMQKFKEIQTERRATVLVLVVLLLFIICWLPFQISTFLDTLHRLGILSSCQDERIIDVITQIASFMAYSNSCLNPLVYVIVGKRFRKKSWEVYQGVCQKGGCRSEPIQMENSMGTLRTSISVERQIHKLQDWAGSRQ
Description: The activity of the products according to the invention was evaluated, according to a first aspect, as a function of their aptitude to bind to the bradykinin B2 receptors. […] It is likewise known that bradykinin is amongst one of the most powerful algesic agents known. The mode of action of kinins and more particularly of bradykinin makes a coupling of the peptides to the two types of receptors called B1 and B2 respectively take place. The B2 receptor belongs to the large family of receptors with seven transmembrane domains coupled to the G proteins and seems to be more particularly involved in the field of the pathologies mentioned above. This is the reason why the products of the invention, which have the property of being able to bind to the B2 receptor, inhibit the binding of bradykinin and, consequently, suppress its harmful activity. The test employed in order to measure this property is a competitive binding test on CHO cell membranes expressing the human B2 receptor using bradykinin labelled with tritium ([^3H]-bradykinin) as ligand.
The results are expressed by the Ki value, as calculated according to the recommended method with the description of the test employed and described according to D. Pruneau et al., in Br. J. Pharmacol. 1998, 125 p 365-372.

bradykinin B2 receptor = target: T2, bradykinin B2 receptor (Homo sapiens, UniProt P30411); experiment: inhibition of the contraction of the isolated human umbilical vein in the presence of bradykinin; type: cell-based
T2 construct: from tissue; host or cells: isolated human umbilical vein
T2 sequence (P30411 1-391): T1 sequence (P30411 1-391)
Excerpt: This antagonist character is expressed by the value pA2, calculated according to a biological test employed in order to measure the inhibition of the contraction of the isolated human umbilical vein by the compounds according to the invention in the presence of bradykinin. The test procedure and the method of calculation of pA2 are described in the articles of D. Pruneau et al. published in Br. J. Pharmacol. 1998, 125, p 365-372 and J L. Paquet et al. Br. J. Pharmacol. 1999, 126 (in print).

[1] = isolated human umbilical vein, contraction in the presence of bradykinin, read-out: pA2 (converted)

Ki (human B2 receptor) | Kb (bradykinin B2 receptor; [1]) | Compound | Kb (bradykinin B2 receptor)
50 nM | 3.98 nM | Cc1cc(-n2ccnc2)c2cccc(OCc3c(Cl)ccc(S(=O)(=O)N4CCC[C@H]4C(=O)N(C)CCN(C)CCCO)c3Cl)c2n1 [Example 101, 1-[[2,4-Dichloro-3-[[[4-(1H-imidazol-1-yl)-2-methyl-8-quinolinyl]oxy]methyl]-phenyl]sulphonyl]-N-methyl-N-[2-[[3-(hydroxy)propyl](methyl)amino]ethyl]-2(S)-pyrrolidinecarboxamide, methanesulphonate] | 
21 nM | 12.6 nM | Cc1cc(-n2ccnc2)c2cccc(OCc3c(Cl)ccc(S(=O)(=O)N4CCC[C@H]4C(=O)N(C)CCN(C)CCCCO)c3Cl)c2n1 [Example 103, 1-[[2,4-Dichloro-3-[[[4-(1H-imidazol-1-yl)-2-methyl-8-quinolinyl]oxy]methyl]-phenyl]sulphonyl]-N-methyl-N-[2-[[4-(hydroxy)butyl](methyl)amino]ethyl]-2(S)-pyrrolidinecarboxamide, methanesulphonate] | 
5.8 nM | 6.31 nM | Cc1cc(-n2cncn2)c2cccc(OCc3c(Cl)ccc(S(=O)(=O)N4CCC[C@H]4C(=O)NCC4CCN(CCO)CC4)c3Cl)c2n1 [Example 166, 1-[[2,4-Dichloro-3-[[[2-methyl-4-(1H-1,2,4-triazol-1-yl)-2-methyl-8-quinolinyl]oxy]methyl]phenyl]sulphonyl]-N-[[1-(2-(hydroxyethyl)-4-piperidinyl]methyl]-2(S)-pyrrolidinecarboxamide, methanesulphonate] | 

The next lines start with the compound.

Compound | Ki (human B2 receptor) | Kb (bradykinin B2 receptor; [1]) | Kb (bradykinin B2 receptor)
Cc1cc(-n2ccnc2)c2cccc(OCc3c(Cl)ccc(S(=O)(=O)N4CCC[C@H]4C(=O)NCc4ccccn4)c3Cl)c2n1 [Example 89, 1-[[2,4-Dichloro-3-[[[4-(1H-imidazol-1-yl)-2-methyl-8-quinolinyl]oxy]methyl]-phenyl]sulphonyl]-N-[(2-pyridinyl)methyl]-2(S)-pyrrolidinecarboxamide, methanesulphonate] | 55 nM | 10 nM | 
Cc1cc(-n2ccnc2)c2cccc(OCc3c(Cl)ccc(S(=O)(=O)N4CCC[C@H]4C(=O)NCC4CCN(Cc5ccccn5)CC4)c3Cl)c2n1 [Example 109, 1-[[2,4-Dichloro-3-[[[4-(1H-imidazol-1-yl)-2-methyl-8-quinolinyl]oxy]methyl]-phenyl]sulphonyl]-N-[[1-(2-pyridinylmethyl)-4-piperidinyl]methyl]-2(S)-pyrrolidinecarboxamide, methanesulphonate] | 15 nM | 5.01 nM | 
Cc1cc(-n2ccnc2)c2cccc(OCc3c(Cl)ccc(S(=O)(=O)N4CCC[C@H]4C(=O)NCC4CCN(CCC(=O)O)CC4)c3Cl)c2n1 [Example 115, 4-[[[[1-[[2,4-Dichloro-3-[[[4-(1H-imidazol-1-yl)-2-methyl-8-quinolinyl]oxy]-methyl]phenyl]sulphonyl]-2(S)-pyrrolidinyl]carbonyl]amino]methyl]-1-piperidinepropanoic acid, tartrate] | 35 nM |  | 3.16 nM
CNCCCNC(=O)[C@@H]1CCCN1S(=O)(=O)c1ccc(Cl)c(COc2cccc3c(-n4ccnc4)cc(C)nc23)c1Cl [Example 123, 1-[[2,4-Dichloro-3-[[[4-(1H-imidazol-1-yl)-2-methyl-8-quinolinyl]oxy]methyl]-phenyl]sulphonyl]-N-[3-(methylamino)propyl]-2(S)-pyrrolidinecarboxamide, trifluoroacetate] | 8.1 nM |  | 3.98 nM
Cc1cc(-n2ccnc2)c2cccc(OCc3c(Cl)ccc(S(=O)(=O)N4CC[C@@H](O)C4)c3Cl)c2n1 [Example 170, 1-[[2,4-Dichloro-3-[[[4-(1H-imidazol-1-yl)-2-methyl-8-quinolinyl]oxy]methyl]-phenyl]sulphonyl]-3(R)-pyrrolidinol, tartrate] | 7.8 nM |  | 10 nM
CC(=O)N[C@H]1CCN(S(=O)(=O)c2ccc(Cl)c(COc3cccc4c(-n5ccnc5)cc(C)nc34)c2Cl)C1 [Example 174, N-[1-[[2,4-Dichloro-3-[[[4-(1H-imidazol-1-yl)-2-methyl-8-quinolinyl]oxy]-methyl]phenyl]sulphonyl]-3(S)-pyrrolidinyl]acetamide] | 8.8 nM | 7.94 nM | 
